In series [1] the test system is PC-12. Briefly: Cytoprotection against SOD1 G93A mutant induced cytotoxicity in rat PC12 cells assessed as reduction of protein aggregates by fluorescent assay. In kind it is functional, cell-based.
In series [2] the test system is Rattus norvegicus. Briefly: Tmax in Sprague-Dawley rat at 1 mg/kg, po. The class given is ADME, organism-based. More on the design: dose 1 mg/kg, route oral. As to conditions: in vivo.
The nature of series [3]: Inhibition of sodium channel site 2 at 10 uM by radioligand binding assay.
The nature of series [4]: Inhibition of GABA transporter at 10 uM by radioligand binding assay.
Another series concerns the target Cytochrome P450 2C19 (Homo sapiens, UniProt P33261). Briefly: Inhibition of CYP2C19 in human liver microsomes. For orientation: Liver microsomes are vesicles of endoplasmic reticulum, rich in cytochrome P450 enzymes.
Series [5] relates to Rattus norvegicus. Briefly: Cmax in Sprague-Dawley rat at 1 mg/kg, po. In kind it is ADME, organism-based. More on the design: dose 1 mg/kg, route oral. As to conditions: in vivo.
For series [6], the system named is Rattus norvegicus. Briefly: Half life in Sprague-Dawley rat at 1 mg/kg, iv. The class given is ADME, organism-based. Also noted: dose 1 mg/kg, route intravenous. As to conditions: in vivo.
The test system of another series is Liver microsomes. Briefly: Half life of the compound in human liver microsomes.
The test system of series [7] is Plasma. Briefly: Plasma protein binding in human at 2 uM. In kind it is ADME, cell-free.
A further series concerns the target hERG (KCNH2) (Homo sapiens, UniProt Q12809). Briefly: Inhibition of human ERG in cells at 10 uM by patch clamp assay relative to control. As to conditions: cells expressing human ERG. (Patch clamp records ionic current or voltage across a cell membrane.)
For a further series, the system named is Liver. Briefly: Half life of the compound in B6SJL mouse liver microsome. As to conditions: microsomes.
Series [8] relates to Plasma. Briefly: Half life in B6SJL mouse plasma by LC-MS/MS analysis.
For a further series, the system named is Caco-2. Briefly: Apparent Permeability across basolateral to apical side in human Caco2 cells at 50 uM after 2 hrs. As to conditions: caco-2, 2 h. A general note: Caco-2 monolayers are a common model of the intestinal barrier.
The test system of series [9] is Plasma. Briefly: Plasma protein binding in rat at 2 uM. The class given is ADME, cell-free.
For the next series, the target named is Cytochrome P450 2D6 (Homo sapiens, UniProt P10635). Briefly: Inhibition of CYP2D6 in human liver microsomes. In kind it is ADME, Microsome.
The target of series [10] is D(3) dopamine receptor (Homo sapiens) (UniProt P35462). Briefly: Inhibition of dopamine D3 receptor at 10 uM by radioligand binding assay.
Series [11] deals with Rattus norvegicus. Briefly: Half life in Sprague-Dawley rat at 1 mg/kg, po. As to conditions: in vivo. Also noted: dose 1 mg/kg, route oral. The class given is ADME, organism-based.
The target of another series is T1, Cytochrome P450 1A2 (Homo sapiens, UniProt P05177).
T1 sequence (P05177 whole entry): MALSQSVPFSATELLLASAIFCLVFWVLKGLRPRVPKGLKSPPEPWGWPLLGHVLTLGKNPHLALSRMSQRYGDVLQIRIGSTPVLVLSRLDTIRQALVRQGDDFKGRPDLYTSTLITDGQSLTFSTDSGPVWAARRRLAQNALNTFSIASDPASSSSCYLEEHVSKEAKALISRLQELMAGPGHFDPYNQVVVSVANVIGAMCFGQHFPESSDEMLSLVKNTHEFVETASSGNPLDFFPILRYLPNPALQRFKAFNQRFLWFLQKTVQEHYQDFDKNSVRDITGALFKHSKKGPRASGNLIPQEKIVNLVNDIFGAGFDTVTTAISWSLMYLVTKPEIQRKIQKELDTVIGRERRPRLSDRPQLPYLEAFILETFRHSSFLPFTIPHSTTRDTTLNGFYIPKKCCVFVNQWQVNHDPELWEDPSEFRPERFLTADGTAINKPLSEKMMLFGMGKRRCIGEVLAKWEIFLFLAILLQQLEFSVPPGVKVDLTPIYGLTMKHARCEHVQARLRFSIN
Briefly: Inhibition of CYP1A2 in human liver microsomes.

The subject of series [12] is Rattus norvegicus. Briefly: Oral bioavailability in Sprague-Dawley rat at 1 mg/kg. In kind it is ADME, organism-based. As to conditions: in vivo.
In series [13] the test system is Rattus norvegicus. Briefly: AUC/dose in Sprague-Dawley rat at 1 mg/kg, po. The class given is ADME, organism-based, Plasma. Also noted: dose 1 mg/kg, route oral. The settings on record: in vivo.
Series [14] relates to PC-12. Briefly: Cytoprotection against SOD1 G93A mutant induced cytotoxicity in rat PC12 cells assessed as reduction of protein aggregates at 10 uM by fluorescent assay in presence of proteasome inhibitor MG132. In kind it is functional, cell-based.
Series [15] deals with T2, Estrogen receptor (Homo sapiens) (UniProt P03372).
T2 sequence (whole entry): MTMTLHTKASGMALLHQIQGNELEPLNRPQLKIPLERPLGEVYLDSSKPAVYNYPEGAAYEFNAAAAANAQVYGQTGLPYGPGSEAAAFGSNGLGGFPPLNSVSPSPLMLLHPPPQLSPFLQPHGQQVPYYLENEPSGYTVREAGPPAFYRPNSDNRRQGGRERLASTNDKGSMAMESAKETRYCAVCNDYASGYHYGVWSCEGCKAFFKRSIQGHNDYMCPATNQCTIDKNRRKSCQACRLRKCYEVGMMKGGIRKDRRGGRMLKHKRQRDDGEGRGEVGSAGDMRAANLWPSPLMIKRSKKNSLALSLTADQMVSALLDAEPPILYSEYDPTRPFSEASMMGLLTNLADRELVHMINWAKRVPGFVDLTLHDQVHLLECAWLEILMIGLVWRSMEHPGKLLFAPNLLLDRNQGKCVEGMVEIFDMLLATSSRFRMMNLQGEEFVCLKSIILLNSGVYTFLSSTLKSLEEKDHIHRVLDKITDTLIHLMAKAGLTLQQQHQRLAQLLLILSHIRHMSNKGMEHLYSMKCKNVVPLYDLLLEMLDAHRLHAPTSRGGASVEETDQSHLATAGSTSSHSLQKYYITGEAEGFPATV
Briefly: Inhibition of ER alpha receptor at 10 uM by radioligand binding assay.

For another series, the target named is Cytochrome P450 2C9 (Homo sapiens, UniProt P11712). Briefly: Inhibition of CYP2C9 in human liver microsomes.
A further series addresses Cytochrome P450 3A4 (Homo sapiens, UniProt P08684). Briefly: Inhibition of CYP3A4 in human liver microsomes. The class given is ADME, Microsome.
Series [16] has as its system Rattus norvegicus. Briefly: AUC/dose in Sprague-Dawley rat at 1 mg/kg, iv. More on the design: dose 1 mg/kg, route intravenous. As to conditions: in vivo. The class given is ADME, organism-based, Plasma.
Series [17] relates to PC-12. Briefly: Cytoprotection against SOD1 G93A mutant induced cytotoxicity in rat PC12 cells after 24 hrs by fluorescent assay. The class given is functional, cell-based.
Series [18] concerns PC-12. Briefly: Cytoprotection against SOD1 G93A mutant induced cytotoxicity in rat PC12 cells assessed as reduction of protein aggregates at 1 uM by fluorescent assay. In kind it is functional, cell-based.
The test system of series [19] is Rattus norvegicus. Briefly: AUC last in Sprague-Dawley rat at 1 mg/kg, iv. The class given is ADME, organism-based, Plasma. Also noted: time 0 - last, dose 1 mg/kg, route intravenous. The settings on record: in vivo.
The subject of series [20] is Rattus norvegicus. Briefly: Volume of distribution at steady state in Sprague-Dawley rat at 1 mg/kg, iv. More on the design: dose 1 mg/kg, route intravenous. The class given is ADME, organism-based. The settings on record: in vivo.

The text below walks through data of ChEMBL document CHEMBL1765084, “Pyrimidine-2,4,6-trione derivatives and their inhibition of mutant SOD1-dependent protein aggregation. Toward a treatment for amyotrophic lateral sclerosis” (J Med Chem, 2011).

Structures are written as SMILES. The source made the active and inactive calls. The calls are words filed in the database; no cut-off is given here. Bounds are passed on as bounds.

The term EC50 denotes the midpoint of the concentration-response curve. As a reminder, the Tmax is the time at which the peak concentration occurs. As a reminder, the inhibition is the relative decrease from the control value, in per cent. Read a high inhibition as strong suppression. A word on the IC50: it is the concentration needed to halve the response being measured. For orientation: Cmax means the highest concentration seen after dosing. One may read the Papp as the rate of passage across a membrane or cell layer, normalised by area and donor concentration. What is called Vdss is a proportionality between amount in the body and measured concentration, not a real space.

Chain of Cytochrome P450 3A4 (P08684 whole entry): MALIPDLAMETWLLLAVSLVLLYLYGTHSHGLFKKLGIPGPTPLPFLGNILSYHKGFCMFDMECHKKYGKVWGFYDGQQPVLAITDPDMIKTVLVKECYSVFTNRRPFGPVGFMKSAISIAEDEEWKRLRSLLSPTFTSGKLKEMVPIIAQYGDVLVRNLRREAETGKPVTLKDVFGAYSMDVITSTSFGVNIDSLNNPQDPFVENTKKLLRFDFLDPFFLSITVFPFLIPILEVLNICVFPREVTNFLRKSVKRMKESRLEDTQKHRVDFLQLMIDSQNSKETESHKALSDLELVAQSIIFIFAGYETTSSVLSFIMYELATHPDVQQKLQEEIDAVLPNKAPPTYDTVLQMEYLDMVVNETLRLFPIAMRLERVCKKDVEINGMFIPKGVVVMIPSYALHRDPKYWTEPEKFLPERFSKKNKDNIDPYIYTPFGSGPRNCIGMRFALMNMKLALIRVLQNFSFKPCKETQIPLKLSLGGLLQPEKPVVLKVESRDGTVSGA
Chain of Cytochrome P450 2D6 (P10635 whole entry): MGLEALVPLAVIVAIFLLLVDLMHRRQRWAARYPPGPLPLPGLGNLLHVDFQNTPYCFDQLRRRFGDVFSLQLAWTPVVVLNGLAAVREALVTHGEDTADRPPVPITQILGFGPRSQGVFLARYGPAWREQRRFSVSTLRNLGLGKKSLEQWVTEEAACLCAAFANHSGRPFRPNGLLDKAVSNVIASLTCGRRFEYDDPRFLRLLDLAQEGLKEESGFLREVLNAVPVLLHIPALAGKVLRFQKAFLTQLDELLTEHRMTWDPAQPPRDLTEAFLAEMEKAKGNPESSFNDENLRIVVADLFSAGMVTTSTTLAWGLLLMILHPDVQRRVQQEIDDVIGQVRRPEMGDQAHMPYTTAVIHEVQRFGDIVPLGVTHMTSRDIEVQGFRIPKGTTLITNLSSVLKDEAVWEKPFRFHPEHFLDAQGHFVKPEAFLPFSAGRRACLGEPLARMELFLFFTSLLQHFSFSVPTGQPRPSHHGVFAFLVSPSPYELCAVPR
Chain of D(3) dopamine receptor (Homo sapiens) (P35462 whole entry): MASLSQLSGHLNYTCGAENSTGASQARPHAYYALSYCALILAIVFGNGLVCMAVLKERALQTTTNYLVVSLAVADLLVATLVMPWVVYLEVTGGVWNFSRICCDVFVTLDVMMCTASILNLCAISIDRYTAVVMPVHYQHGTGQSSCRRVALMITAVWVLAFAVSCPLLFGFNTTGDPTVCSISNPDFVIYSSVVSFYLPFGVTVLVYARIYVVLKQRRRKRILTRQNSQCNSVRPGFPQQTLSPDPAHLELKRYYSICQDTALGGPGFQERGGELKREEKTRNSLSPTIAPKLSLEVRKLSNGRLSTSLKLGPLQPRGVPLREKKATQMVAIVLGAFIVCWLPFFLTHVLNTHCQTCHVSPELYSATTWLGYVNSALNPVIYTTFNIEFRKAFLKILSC
Chain of Cytochrome P450 2C9 (P11712 whole entry): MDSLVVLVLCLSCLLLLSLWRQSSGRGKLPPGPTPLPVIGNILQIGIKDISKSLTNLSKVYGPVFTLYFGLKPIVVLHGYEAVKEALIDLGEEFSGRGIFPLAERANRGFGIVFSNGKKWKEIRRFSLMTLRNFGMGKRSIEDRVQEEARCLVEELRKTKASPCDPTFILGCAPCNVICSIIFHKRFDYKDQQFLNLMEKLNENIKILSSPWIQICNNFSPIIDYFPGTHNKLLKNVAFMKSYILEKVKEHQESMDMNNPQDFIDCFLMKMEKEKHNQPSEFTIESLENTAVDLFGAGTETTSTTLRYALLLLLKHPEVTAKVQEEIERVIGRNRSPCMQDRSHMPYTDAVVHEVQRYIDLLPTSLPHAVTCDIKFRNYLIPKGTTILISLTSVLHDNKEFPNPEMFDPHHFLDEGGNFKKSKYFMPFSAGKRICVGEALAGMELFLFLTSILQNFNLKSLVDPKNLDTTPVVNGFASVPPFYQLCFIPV
Chain of hERG (KCNH2) (Q12809 whole entry): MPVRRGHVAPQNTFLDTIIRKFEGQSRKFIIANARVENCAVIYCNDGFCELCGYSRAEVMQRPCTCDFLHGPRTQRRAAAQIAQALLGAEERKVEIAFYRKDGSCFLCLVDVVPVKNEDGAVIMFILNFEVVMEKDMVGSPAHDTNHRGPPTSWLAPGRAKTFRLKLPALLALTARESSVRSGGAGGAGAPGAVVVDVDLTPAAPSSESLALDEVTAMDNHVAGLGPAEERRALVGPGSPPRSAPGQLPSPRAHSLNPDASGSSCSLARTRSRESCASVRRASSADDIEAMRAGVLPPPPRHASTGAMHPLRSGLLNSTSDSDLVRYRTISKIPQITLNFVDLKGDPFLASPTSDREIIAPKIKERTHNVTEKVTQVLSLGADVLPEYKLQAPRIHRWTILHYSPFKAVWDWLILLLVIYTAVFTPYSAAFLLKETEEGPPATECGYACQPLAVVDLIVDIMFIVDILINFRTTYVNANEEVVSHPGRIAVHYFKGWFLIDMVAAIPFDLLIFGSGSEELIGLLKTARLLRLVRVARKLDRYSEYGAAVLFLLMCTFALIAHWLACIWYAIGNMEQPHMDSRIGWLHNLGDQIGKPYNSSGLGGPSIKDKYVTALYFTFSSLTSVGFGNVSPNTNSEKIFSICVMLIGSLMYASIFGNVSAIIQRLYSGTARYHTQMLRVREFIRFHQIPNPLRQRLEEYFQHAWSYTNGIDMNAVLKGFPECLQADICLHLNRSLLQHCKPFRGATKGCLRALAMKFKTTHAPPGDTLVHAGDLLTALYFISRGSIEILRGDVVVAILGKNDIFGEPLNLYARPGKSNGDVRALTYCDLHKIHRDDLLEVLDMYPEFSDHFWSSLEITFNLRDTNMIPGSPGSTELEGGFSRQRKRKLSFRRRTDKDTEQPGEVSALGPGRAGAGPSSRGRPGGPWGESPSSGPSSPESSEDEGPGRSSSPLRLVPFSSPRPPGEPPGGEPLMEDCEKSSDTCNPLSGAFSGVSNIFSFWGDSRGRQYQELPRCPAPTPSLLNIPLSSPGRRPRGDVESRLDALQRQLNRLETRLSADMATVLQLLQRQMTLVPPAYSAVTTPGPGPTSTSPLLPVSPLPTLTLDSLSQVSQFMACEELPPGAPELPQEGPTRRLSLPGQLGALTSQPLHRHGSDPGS
Chain of Cytochrome P450 2C19 (P33261 whole entry): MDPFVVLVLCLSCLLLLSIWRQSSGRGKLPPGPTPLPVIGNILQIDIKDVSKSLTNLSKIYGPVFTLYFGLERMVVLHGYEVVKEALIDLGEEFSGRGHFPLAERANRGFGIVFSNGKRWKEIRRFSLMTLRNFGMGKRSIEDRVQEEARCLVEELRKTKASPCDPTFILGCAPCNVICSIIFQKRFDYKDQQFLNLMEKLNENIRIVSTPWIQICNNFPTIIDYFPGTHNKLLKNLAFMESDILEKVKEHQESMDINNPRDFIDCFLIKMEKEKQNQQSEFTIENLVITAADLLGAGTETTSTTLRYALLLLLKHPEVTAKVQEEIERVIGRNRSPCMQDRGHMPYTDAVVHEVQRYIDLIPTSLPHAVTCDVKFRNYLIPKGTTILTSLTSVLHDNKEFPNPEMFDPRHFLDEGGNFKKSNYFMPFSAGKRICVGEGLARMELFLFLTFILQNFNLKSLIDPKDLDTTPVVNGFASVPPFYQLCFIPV

As to `CCOCCN1C(=O)CC(=O)N(CCOCC)C1=O`, the EC50 in the series with PC-12 [1] was 7.75 µM.

For the compound `O=C1CC(=O)N(C2CCCCC2)C(=O)N1C1CCCCC1`, the concentration for a half-maximal effect (EC50) in the series on PC-12 [1] was determined as 2.97 µM.

`CC1(C)C(=O)N(CCc2ccccc2)C(=O)N(CCc2ccccc2)C1=O`: the EC50 in the series with PC-12 [1] is over 32 µM.

In the case of `COc1ccc(CCN2C(=O)CC(=O)N(CCc3ccc(OC)c(OC)c3)C2=O)cc1OC`, the EC50 in the series with PC-12 [1] came out at 11.6 µM.

As for `O=C1CC(=O)N(Cc2ccccc2)C(=O)N1Cc1ccccc1`, the concentration giving a half-maximal response (EC50) in the series with PC-12 [1] stood at 4.58 µM.

As to `O=C1C(=O)N(C2CCCCC2)C(=O)N1C1CCCCC1`, the EC50 in the series with PC-12 [1] is over 32 µM.

`O=C1C(=Cc2c(Cl)cccc2Cl)C(=O)N(CCc2ccccc2)C(=O)N1CCc1ccccc1`: the half-maximal effective concentration (EC50) in the series on PC-12 [1] was 3.1 µM.

Consider `O=C1CC(=O)N(CCc2ccc(Cl)cc2)C(=O)N1CCc1ccccc1`, for which, in the series with PC-12 [1], the EC50 turned out to be 1.19 µM.

As to `O=C1CC(=O)N(CCCc2ccccc2)C(=O)N1CCCc1ccccc1`, the 50% effective concentration (EC50) in the series with PC-12 [1] is 1.32 µM.

For the compound `O=C1CC(=O)N(CCc2ccccc2)C(=O)N1CCc1ccccc1`, the Tmax in the series on Rattus norvegicus [2] came out at 45 min. Also, the inhibition in series [3] was 21%; in series [4], 19%; in series [10], 41%; in series [15] it was 20%. For the same compound, the EC50 in the series on PC-12 [1] was 1.68 µM. Moreover, the IC50 at Cytochrome P450 2C19, at Cytochrome P450 2D6, on Cytochrome P450 1A2, against Cytochrome P450 2C9 and at Cytochrome P450 3A4 was over 50 µM throughout. For the same compound, the Cmax in the series on Rattus norvegicus [5] was found to be 55 ng/mL. The t1/2 came to 57 min in the series with Rattus norvegicus [6]; 61 min with Liver microsomes; 39 min in the series on Liver; 60.5 min with Plasma [8]; 84 min in the series on Rattus norvegicus [11]. Further, the PPB is 90% with Plasma [7] and 95% with Plasma [9]. The same compound displayed an inhibition at 10 µM at hERG (KCNH2) of 4.9%. In the series with Caco-2, the Papp came out at 26 ×10⁻⁶ cm/s. Further, the F with Rattus norvegicus [12] is given as 98%. The AUC/dose is 124 ng·h/mL with Rattus norvegicus [13] and 126 ng·h/mL with Rattus norvegicus [16]. Moreover, the outcome with PC-12 [14] was Active. For the same compound, the Activity result in the series on PC-12 [17] and with PC-12 [18] was “Dose-dependent effect” throughout. In the series with Rattus norvegicus [19], this compound came in with an AUClast of 121 ng·h/mL. The compound further gave a Vdss in the series on Rattus norvegicus [20] of 9 L/kg.

With `CCCN1C(=O)CC(=O)N(CCC)C1=O`, the EC50 in the series on PC-12 [1] was found to be 7.68 µM.

Turning to `O=C1C(=O)N(CCc2ccccc2)C(=O)N1CCc1ccccc1`, the EC50 in the series on PC-12 [1] was over 32 µM.

For `O=C1CC(=O)N(CCc2cccs2)C(=O)N1CCc1ccccc1`, the EC50 with PC-12 [1] is 3.39 µM.

Turning to `O=C1CC(=O)N(CCc2ccc(Cl)cc2)C(=O)N1CCc1ccc(Cl)cc1`, the concentration for a half-maximal effect (EC50) in the series with PC-12 [1] is 3.26 µM.

`O=C1CC(=O)N(CCc2ccc(F)cc2)C(=O)N1CCCCc1ccccc1`: the EC50 in the series with PC-12 [1] amounted to 3.55 µM.

`CC1C(=O)N(CCc2ccccc2)C(=O)N(CCc2ccccc2)C1=O`: in the series on PC-12 [1], the EC50 was over 32 µM.

Take `O=C1CC(=O)N(CCc2ccc(F)cc2)C(=O)N1CCc1ccc(F)cc1`: in the series on PC-12 [1], the EC50 was 3.45 µM.

On to `O=c1cc(Cl)n(CCc2ccccc2)c(=O)n1CCc1ccccc1`, for which, in the series on PC-12 [1], the 50% effective concentration (EC50) was over 32 µM.

Take `CC(C)(C)CCN1C(=O)CC(=O)N(CCC(C)(C)C)C1=O`: the concentration giving a half-maximal response (EC50) in the series with PC-12 [1] is 2.03 µM.

In the case of `O=C1CC(=O)N(CCc2cccs2)C(=O)N1CCc1cccs1`, the EC50 with PC-12 [1] was found to be 2.16 µM.

Take `Cc1ccccc1C=C1C(=O)N(CCc2ccccc2)C(=O)N(CCc2ccccc2)C1=O`: the EC50 in the series on PC-12 [1] worked out at 2.23 µM.

As for `O=C1CC(=O)N(C2CCc3ccccc32)C(=O)N1C1CCc2ccccc21` (stereo not drawn), the EC50 in the series with PC-12 [1] was over 32 µM.

In the case of `O=C1CC(=O)N(CCc2ccc(Cl)cc2Cl)C(=O)N1CCc1ccc(Cl)cc1Cl`, the EC50 with PC-12 [1] came to 1.87 µM.

Take `O=C1CC(=O)N(Cc2ccccc2)C(=O)N1CCc1ccccc1`: the EC50 in the series with PC-12 [1] is 1.9 µM.

Take `COc1ccc(C=C2C(=O)N(C3CCCCC3)C(=O)N(C3CCCCC3)C2=O)c(OC)c1`: the EC50 in the series with PC-12 [1] stood at 2.58 µM.
